The values below come from US11427553B2, “Dihydrooxadiazinones” (Bayer Aktiengesellschaft, priority 2017, dated 2022).

One assay concerns NCIH2172 cells. Description: Assay 2 cell proliferation measurement, H2172. In kind it is cell-based. The note with it: Homo sapiens, NCI-H2172, Lung non small cell carcinoma, read-out: Anti-proliferation IC50 [nM] H2172. How it is done: (§1) Cell Proliferation Measurement
(§2) The antiproliferative activity of the compounds of the general formula (I) was examined in vitro in human cancer cells. For this purpose, 500 cells, including HeLa cells, A2058 cells, DU145 cells, HMCB cells, IGR37 cells, NCIH1734 cells, OSRC2 cells, or 750 cells, including CAL51 cells, COL0741 cells, DBTRG05MG cells, DKMG cells, G292CLONEA141B1 cells, GB1 cells, HEL cells, HEL9217 cells, JHUEM1 cells, L3.3 cells, LI7 cells, TE4 cells, or 1000 cells, including 8505C cells, HUT78 cells, NCIH1563 cells, NCIH2122 cells, NCIH2172 cells, RVH421 cells, SKMEL3 cells, or 1500 cells, including C32 cells, HS578T cells, JHOM1 cells, NCIH196 cells, OVKATE cells, were plated in 384-well plates with appropriate growth medium and incubated at 37° C. overnight. After 24 h, the cells on the test plate were treated with the compounds of the general formula (I) as and incubated at 37° C. for 72 h. The compounds were added to the cells by means of an HP D300 digital dispenser in a 10 (or more)-step dilution series. As control, the cells were treated with vehicle (DMSO at 0.3% final concentration). After 72 h, the cells were treated with 20 μl/well of 50% CTG solution in PBS (Promega Cell Titer Glo (catalogue #G755B and G756B)) and incubated at room temperature for 10 min, and luminescence was measured by means of a VICTOR V (Perkin Elmer), in order to determine cell viability at the end of treatment. The percentage effect on cell growth and the IC50 derived therefrom were determined for each test substance using the values from untreated wells (=percent viability). The IC50 values were calculated using a 4-parameter fit.

Assay [1] has as its system IGR-37 xenograft (Melanoma). As to the kind of experiment: Assay 3 in vivo xenotransplantation model, IGR-37. The following applies: IGR-37 melanoma xenograft, mice, 10 mg/kg 2QD p.o.; * P < 0.05 vs control. An excerpt:
In Vivo Xenotransplantation Models
The anti-tumor activities of Compounds of examples 135 and 146 were examined in murine xenotransplantation models of human cancer. For this purpose, mice were implanted subcutaneously with tumor cells. At a mean tumor size of 20-40 mm^2 animals were randomized into treatment and control groups (at least n=10 animals/group) and treatment started with vehicle only or respective Compound (formulation: 90% PEG400/10% Ethanol; application route: per os (“p.o.”), orally). The oral application volume was 10 ml/kg. In the case of twice daily treatments, the time interval between two applications per day was 6-7 h. The tumor size and the body weight were determined at least weekly. The tumor area was detected by means of an electronic caliper [length (mm)×width (mm)]. The experiment was ended when the study reached the pre-determined ethical endpoint based on German and European animal welfare regulations. In vivo anti-tumor efficacy is presented as T/C ratio at study end (Treatment/Control; mean tumor weight of treatment group/mean tumor weight of control group) in Table 8. A compound having a T/C below 0.5 is defined as active (i.e., effective). Statistical analysis was assessed using SigmaStat software. A one-way analysis of variance was performed and differences to the control were compared by a pair-wise comparison procedure (Dunn's method).

A further assay has as its target human full length PDE3B (Homo sapiens (Human), UniProt Q13370). Description: Assay 5 PDE3B enzyme inhibition (3H-cAMP SPA). The following applies: Sf9 cell extract. In kind it is biochemical. The method, boiled down:
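Compounds in DMSO are mixed with diluted PDE3B extract from Sf9 cells, and reactions start on adding tritiated cAMP. After 60 min at room temperature, yttrium scintillation proximity beads terminate hydrolysis and signal is counted; IC50 values come from sigmoidal dose-response curves.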

The subject of another assay is DKMG cells. As to the kind of experiment: Assay 2 cell proliferation measurement, DKMG. It counts as cell-based. The following applies: Homo sapiens, Glioma_astrocytoma, read-out: Anti-proliferation IC50 [nM] DKMG. The method, then:
as §1, §2

Another assay has as its system L3.3 cells. As to the kind of experiment: Assay 2 cell proliferation measurement, L3.3. It counts as cell-based. The following applies: Homo sapiens, Pancreas NS, read-out: Anti-proliferation IC50 [nM] L3.3. The method, then:
as §1, §2

A further assay deals with PA-1 cells. As to the kind of experiment: Assay 1 cell proliferation measurement, PA-1. It counts as cell-based. The following applies: Homo sapiens, Ovarian teratocarcinoma, read-out: Anti-proliferation IC50 [nM] PA-1.

Sequence of human full length PDE3B (Q13370 whole entry): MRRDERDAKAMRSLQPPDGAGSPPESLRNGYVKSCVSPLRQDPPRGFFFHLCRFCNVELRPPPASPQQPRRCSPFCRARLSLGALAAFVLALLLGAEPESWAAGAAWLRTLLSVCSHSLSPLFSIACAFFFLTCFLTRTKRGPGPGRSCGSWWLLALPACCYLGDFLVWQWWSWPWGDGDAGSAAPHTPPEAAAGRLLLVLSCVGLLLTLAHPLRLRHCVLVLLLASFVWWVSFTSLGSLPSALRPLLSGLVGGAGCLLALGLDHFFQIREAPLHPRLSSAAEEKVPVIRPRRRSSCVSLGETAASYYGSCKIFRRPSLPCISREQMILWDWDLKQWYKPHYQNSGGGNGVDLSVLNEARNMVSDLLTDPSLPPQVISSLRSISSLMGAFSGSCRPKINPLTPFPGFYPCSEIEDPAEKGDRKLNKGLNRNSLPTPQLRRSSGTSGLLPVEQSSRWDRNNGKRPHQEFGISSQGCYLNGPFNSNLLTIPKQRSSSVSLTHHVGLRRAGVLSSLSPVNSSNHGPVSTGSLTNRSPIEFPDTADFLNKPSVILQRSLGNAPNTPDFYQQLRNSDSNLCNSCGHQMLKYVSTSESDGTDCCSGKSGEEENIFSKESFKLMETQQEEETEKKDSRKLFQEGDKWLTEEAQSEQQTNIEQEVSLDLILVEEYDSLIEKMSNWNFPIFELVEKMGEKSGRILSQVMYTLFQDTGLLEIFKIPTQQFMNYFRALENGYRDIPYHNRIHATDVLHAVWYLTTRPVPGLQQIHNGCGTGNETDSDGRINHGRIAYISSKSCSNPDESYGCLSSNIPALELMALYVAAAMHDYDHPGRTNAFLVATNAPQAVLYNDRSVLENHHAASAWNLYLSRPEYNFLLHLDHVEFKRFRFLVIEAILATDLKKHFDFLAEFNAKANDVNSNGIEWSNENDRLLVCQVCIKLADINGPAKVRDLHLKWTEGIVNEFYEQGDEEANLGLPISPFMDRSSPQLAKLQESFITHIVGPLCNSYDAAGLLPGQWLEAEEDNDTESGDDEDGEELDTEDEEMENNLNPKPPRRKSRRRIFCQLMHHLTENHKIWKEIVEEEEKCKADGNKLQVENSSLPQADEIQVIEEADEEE

Take `C[C@@H]1OC(=O)NN=C1c1ccc(-c2ccc(F)cc2)c(C(F)(F)F)c1` [Example 135, (6S)-5-[4′-Fluoro-2-(trifluoromethyl)biphenyl-4-yl]-6-methyl-3,6-dihydro-2H-1,3,4-oxadiazin-2-one]: the IC50 in the assay on NCIH2172 cells was 38 nM; against human full length PDE3B, 50 nM; with DKMG cells, 22 nM; in the assay on L3.3 cells, 82 nM. The “T/C (mean final tumor weight treatment / control)” value in assay [1] is given as 0.06*.

Consider `O=C1NN=C(c2ccc(-c3ccc(F)cc3)c(C(F)(F)F)c2)CO1` [Example 3, 5-[4′-Fluoro-2-(trifluoromethyl)biphenyl-4-yl]-3,6-dihydro-2H-1,3,4-oxadiazin-2-one], for which the results for the IC50 against human full length PDE3B and in the assay on PA-1 cells were 197 nM and 22 nM, respectively.

With `C[C@@H]1OC(=O)NN=C1c1ccc(-n2ccc(C(F)(F)F)n2)c(C(F)(F)F)c1` [Example 265, (6S)-6-Methyl-5-{3-(trifluoromethyl)-4-[3-(trifluoromethyl)-1H-pyrazol-1-yl]phenyl}-3,6-dihydro-2H-1,3,4-oxadiazin-2-one], the IC50 in the assay with NCIH2172 cells came out at 101 nM; in the assay on DKMG cells, 59 nM; in the assay on L3.3 cells, 312 nM. Also, in assay [1], the “T/C (mean final tumor weight treatment / control)” value was 0.27*.

In the case of `O=C1NN=C(c2ccc(-c3ccc(Cl)cc3)c(C(F)(F)F)c2)CO1` [Example 31, 5-[4′-Chloro-2-(trifluoromethyl)biphenyl-4-yl]-3,6-dihydro-2H-1,3,4-oxadiazin-2-one], the IC50 came to 603 nM against human full length PDE3B and 39 nM with PA-1 cells.

On to `O=C1NN=C(c2ccc(-c3cnn(C(F)F)c3)c(C(F)(F)F)c2)CO1` [Example 146, 5-{4-[1-(Difluoromethyl)-1H-pyrazol-4-yl]-3-(trifluoromethyl)phenyl}-3,6-dihydro-2H-1,3,4-oxadiazin-2-one], for which the IC50 in the assay with NCIH2172 cells was 37 nM; at human full length PDE3B, 80 nM; with DKMG cells, 13 nM; in the assay with L3.3 cells, 15 nM; in the assay with PA-1 cells, 12 nM. Moreover, the “T/C (mean final tumor weight treatment / control)” value in assay [1] was 0.05*.
